Measured values as given in patent publication US20240199542A1, “SUBSTITUTED PYRROLIDIN-2-ONES, SALTS THEREOF AND THEIR USE AS HERBICIDALLY ACTIVE SUBSTANCES” (Bayer Aktiengesellschaft, priority 2021, published 2024).

Tests used:
Type in all cases: in vivo
[1] = tested on: Alopecurus myosuroides (ALOMY); assay: Herbicidal post-emergence action; details: 1280 g/ha, assessed after ca. 3 weeks
Method in brief: (§1)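 Visual % herbicidal effect versus untreated controls, scored ~3 weeks after spraying; 100% = dead, 0% = like control. Single-leaf-stage greenhouse plants, sprayed with WP/EC in aqueous spray + 0.5% additive, 600 l/ha, at 1280 or 320 g/ha.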

Veronica persica (VERPE) [2] = assay: Herbicidal post-emergence action; details: 1280 g/ha, assessed after ca. 3 weeks
Method in brief: as §1

[3] = tested on: Echinochloa crus-galli (ECHCG); assay: Herbicidal post-emergence action; details: 1280 g/ha, assessed after ca. 3 weeks
Method in brief: as §1

[4] = tested on: Lolium multiflorum (LOLMU); assay: Herbicidal post-emergence action; details: 1280 g/ha, assessed after ca. 3 weeks
Method in brief: as §1

Avena fatua (AVEFA) [5] = assay: Herbicidal post-emergence action; details: 1280 g/ha, assessed after ca. 3 weeks
Method in brief: as §1

Stellaria media (STEME) [6] = assay: Herbicidal post-emergence action; details: 1280 g/ha, assessed after ca. 3 weeks
Method in brief: as §1

[7] = tested on: Alopecurus myosuroides (ALOMY); assay: Herbicidal pre-emergence action; details: 1280 g/ha, graded after ca. 3 weeks
Method in brief: (§2)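 Sown seeds in sandy loam received the formulated compounds on the covering soil at application rates up to 1280 g/ha, applied in 600 l water/ha with 0.5% additive. Damage was graded visually after about 3 weeks relative to untreated plants.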

[8] = tested on: Echinochloa crus-galli (ECHCG); assay: Herbicidal pre-emergence action; details: 1280 g/ha, graded after ca. 3 weeks
Method in brief: as §2

[9] = tested on: Lolium multiflorum (LOLMU); assay: Herbicidal pre-emergence action; details: 1280 g/ha, graded after ca. 3 weeks
Method in brief: as §2

[10] = tested on: Cyperus esculentus (CYPES); assay: Herbicidal pre-emergence action; details: 1280 g/ha, graded after ca. 3 weeks
Method in brief: as §2

Avena fatua (AVEFA) [11] = assay: Herbicidal pre-emergence action; details: 1280 g/ha, graded after ca. 3 weeks
Method in brief: as §2

Setaria viridis (SETVI) [12] = assay: Herbicidal pre-emergence action; details: 1280 g/ha, graded after ca. 3 weeks
Method in brief: as §2

[13] = tested on: Polygonum convolvulus (POLCO); assay: Herbicidal pre-emergence action; details: 1280 g/ha, graded after ca. 3 weeks
Method in brief: as §2

[14] = tested on: Digitaria sanguinalis (DIGSA); assay: Herbicidal post-emergence action; details: 320 g/ha, assessed after ca. 3 weeks
Method in brief: as §1

Lolium rigidum (LOLRI) = assay: Herbicidal post-emergence action; details: 320 g/ha, assessed after ca. 3 weeks
Method in brief: as §1

Veronica persica (VERPE) [15] = assay: Herbicidal pre-emergence action; details: 1280 g/ha, graded after ca. 3 weeks
Method in brief: as §2

[16] = tested on: Digitaria sanguinalis (DIGSA); assay: Herbicidal pre-emergence action; details: 320 g/ha, graded after ca. 3 weeks
Method in brief: as §2

Viola tricolor (VIOTR) [17] = assay: Herbicidal pre-emergence action; details: graded after ca. 3 weeks
Method in brief: as §2

[18] = tested on: Pharbitis purpurea (PHBPU); assay: Herbicidal pre-emergence action; details: 1280 g/ha, graded after ca. 3 weeks
Method in brief: as §2

Stellaria media (STEME) [19] = assay: Herbicidal pre-emergence action; details: 1280 g/ha, graded after ca. 3 weeks
Method in brief: as §2

Zea Mays (ZEAMX) [20] = assay: Pre-emergence effects on crop plants; details: 320 g/ha, crop plant
From the text: (§3) Seeds of mono- and dicotyledonous weed plants and crop plants were sown, in plastic or organic planting pots, in sandy loam and covered with soil. The compounds according to the invention, formulated in the form of wettable powders (WP) or as emulsifiable concentrates (EC), were applied to the surface of the covering soil as aqueous suspension or emulsion, with the addition of 0.5% of an additive, at an application rate of 600 1 of water/ha (converted).
(§4) Following treatment, the pots were placed in a greenhouse and kept under optimum growth conditions for the test plants. The visual grading of the damage to the test plants was carried out after ca. 3 weeks in comparison to untreated controls (herbicidal effect in percent (%): 100% effect=plants have died off, 0% effect=as control plants).
(§5) Tables C1 to C3 below show the effects of selected compounds of the general formula (I) according to table 1 on various crop plants and an application rate corresponding to 320 g/ha or below obtained by the experimental procedure mentioned above in biology section A.

Glycine max (GLXMA) [21] = assay: Pre-emergence effects on crop plants; details: 320 g/ha, crop plant
From the text: as §3, §4, §5

Brassica napus (BRSNW) [22] = assay: Pre-emergence effects on crop plants; details: 320 g/ha, crop plant
From the text: as §3, §4, §5

Zea Mays (ZEAMX) [23] = assay: Post-emergence effects on crop plants; details: 320 g/ha, crop plant
Method in brief: (§6)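 Greenhouse-grown plants in sandy loam sprayed post-emergence at single-leaf stage (2–3 weeks after sowing) with WP or EC formulations plus 0.5% additive, 600 l water/ha, at rates of 320 g/ha or below. Visual damage scored ca. 3 weeks later versus untreated controls, 0% (as control) to 100% (dead).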

Glycine max (GLXMA) [24] = assay: Post-emergence effects on crop plants; details: 320 g/ha, crop plant
Method in brief: as §6

Brassica napus (BRSNW) [25] = assay: Post-emergence effects on crop plants; details: application rate 320 g/ha, crop plant Brassica napus (BRSNW)
Method in brief: as §6

[26] = tested on: Matricaria inodora (MATIN); assay: Herbicidal pre-emergence action; details: 1280 g/ha, graded after ca. 3 weeks
Method in brief: as §2

[27] = tested on: Amaranthus retroflexus (AMARE); assay: Herbicidal pre-emergence action; details: 1280 g/ha, graded after ca. 3 weeks
Method in brief: as §2

Setaria viridis (SETVI) [28] = assay: Herbicidal post-emergence action; details: 1280 g/ha, assessed after ca. 3 weeks
Method in brief: as §1

Viola tricolor (VIOTR) [29] = assay: Herbicidal post-emergence action; details: 1280 g/ha, assessed after ca. 3 weeks
Method in brief: as §1

[30] = tested on: Amaranthus retroflexus (AMARE); assay: Herbicidal post-emergence action; details: 1280 g/ha, assessed after ca. 3 weeks
Method in brief: as §1

[31] = tested on: Polygonum convolvulus (POLCO); assay: Herbicidal post-emergence action; details: 1280 g/ha, assessed after ca. 3 weeks
Method in brief: as §1

[32] = tested on: Pharbitis purpurea (PHBPU); assay: Herbicidal post-emergence action; details: 1280 g/ha, assessed after ca. 3 weeks
Method in brief: as §1

[33] = tested on: Matricaria inodora (MATIN); assay: Herbicidal post-emergence action; details: 1280 g/ha, assessed after ca. 3 weeks
Method in brief: as §1

## Cn1nnnc1NC(=O)CC1CCC(=O)N1Cc1cccc(F)c1F (racemic) [Example I-004]
[1]
  Post-emergence activity against ALOMY: 90%
Veronica persica (VERPE) [2]
  Post-emergence activity against VERPE: 80%
[3]
  Post-emergence activity against ECHCG: 100%
[4]
  Post-emergence activity against LOLMU: 90%
Avena fatua (AVEFA) [5]
  Post-emergence activity against AVEFA: 100%
Stellaria media (STEME) [6]
  Post-emergence activity against STEME: 80%
[7]
  Pre-emergence activity against ALOMY: 90%
[8]
  Pre-emergence activity against ECHCG: 80%
[9]
  Pre-emergence activity against LOLMU: 90%
[10]
  Pre-emergence activity against CYPES: 100%
Avena fatua (AVEFA) [11]
  Pre-emergence activity against AVEFA: 100%
Setaria viridis (SETVI) [12]
  Pre-emergence activity against SETVI: 80%
[13]
  Pre-emergence activity against POLCO: 80%

## O=C(CC1CCC(=O)N1Cc1cccc(F)c1F)OCCOc1ccc(F)cc1 (racemic) [Example I-007]
[1]
  Post-emergence activity against ALOMY: 80%
[14]
  Post-emergence activity against DIGSA: 90%
[3]
  Post-emergence activity against ECHCG: 90%
Avena fatua (AVEFA) [5]
  Post-emergence activity against AVEFA: 90%
Lolium rigidum (LOLRI)
  Post-emergence activity against LOLRI: 80%
[7]
  Pre-emergence activity against ALOMY: 90%
Veronica persica (VERPE) [15]
  Pre-emergence activity against VERPE: 90%
[16]
  Pre-emergence activity against DIGSA: 90%
[8]
  Pre-emergence activity against ECHCG: 90%
[9]
  Pre-emergence activity against LOLMU: 90%
Viola tricolor (VIOTR) [17]; 320 g/ha
  Pre-emergence activity against VIOTR: 90%
[10]
  Pre-emergence activity against CYPES: 90%
Avena fatua (AVEFA) [11]
  Pre-emergence activity against AVEFA: 100%
Setaria viridis (SETVI) [12]
  Pre-emergence activity against SETVI: 90%
[18]
  Pre-emergence activity against PHBPU: 80%
[13]
  Pre-emergence activity against POLCO: 90%
Stellaria media (STEME) [19]
  Pre-emergence activity against STEME: 80%
Zea Mays (ZEAMX) [20]
  pre-emergence activity against ZEAMX (crop damage): 0%
Glycine max (GLXMA) [21]
  pre-emergence activity against GLXMA (crop damage): 0%
Brassica napus (BRSNW) [22]
  pre-emergence activity against BRSNW (crop damage): 0%
Zea Mays (ZEAMX) [23]
  post-emergence activity against ZEAMX (crop damage): 0%
Glycine max (GLXMA) [24]
  post-emergence activity against GLXMA (crop damage): 0%
Brassica napus (BRSNW) [25]
  post-emergence activity against BRSNW: 0%

## O=C(CC1CCC(=O)N1Cc1cccc(F)c1F)OCCOc1ccc(Cl)cc1 (racemic) [Example I-033]
[1]
  Post-emergence activity against ALOMY: 80%
[3]
  Post-emergence activity against ECHCG: 80%
[7]
  Pre-emergence activity against ALOMY: 90%
Veronica persica (VERPE) [15]
  Pre-emergence activity against VERPE: 90%
[8]
  Pre-emergence activity against ECHCG: 80%
[10]
  Pre-emergence activity against CYPES: 80%
Avena fatua (AVEFA) [11]
  Pre-emergence activity against AVEFA: 100%
Setaria viridis (SETVI) [12]
  Pre-emergence activity against SETVI: 80%
[18]
  Pre-emergence activity against PHBPU: 80%
[26]
  Pre-emergence activity against MATIN: 80%

## O=C(CC1CCC(=O)N1Cc1cccc(F)c1F)NCc1ccccc1 (racemic) [Example I-055]
[10]
  Pre-emergence activity against CYPES: 100%
Avena fatua (AVEFA) [11]
  Pre-emergence activity against AVEFA: 80%
[27]
  Pre-emergence activity against AMARE: 100%

## CC1(C)CC(=O)C(C(=O)CC2CCC(=O)N2Cc2cccc(F)c2F)C(=O)C1 (racemic) [Example I-179]
[3]
  Post-emergence activity against ECHCG: 90%
Avena fatua (AVEFA) [5]
  Post-emergence activity against AVEFA: 90%
Setaria viridis (SETVI) [28]
  Post-emergence activity against SETVI: 80%
Stellaria media (STEME) [6]
  Post-emergence activity against STEME: 80%
Avena fatua (AVEFA) [11]
  Pre-emergence activity against AVEFA: 90%
Stellaria media (STEME) [19]
  Pre-emergence activity against STEME: 80%

## CC1CC(=O)C(C(=O)CC2CCC(=O)N2Cc2cccc(F)c2F)C(=O)C1 (racemic) [Example I-180]
[3]
  Post-emergence activity against ECHCG: 90%
Viola tricolor (VIOTR) [29]
  Post-emergence activity against VIOTR: 80%
Avena fatua (AVEFA) [5]
  Post-emergence activity against AVEFA: 80%
[30]
  Post-emergence activity against AMARE: 90%
[31]
  Post-emergence activity against POLCO: 80%
Stellaria media (STEME) [6]
  Post-emergence activity against STEME: 90%
[7]
  Pre-emergence activity against ALOMY: 80%
[8]
  Pre-emergence activity against ECHCG: 90%
Avena fatua (AVEFA) [11]
  Pre-emergence activity against AVEFA: 90%

## CC1(C)C(=O)C(C(=O)CC2CCC(=O)N2Cc2cccc(F)c2F)C(=O)C(C)(C)C1=O (racemic) [Example I-184]
[1]
  Post-emergence activity against ALOMY: 80%
Veronica persica (VERPE) [2]
  Post-emergence activity against VERPE: 80%
[4]
  Post-emergence activity against LOLMU: 80%
Avena fatua (AVEFA) [5]
  Post-emergence activity against AVEFA: 80%
[30]
  Post-emergence activity against AMARE: 80%
[32]
  Post-emergence activity against PHBPU: 90%
[33]
  Post-emergence activity against MATIN: 90%
Stellaria media (STEME) [6]
  Post-emergence activity against STEME: 80%
[26]
  Pre-emergence activity against MATIN: 80%

## O=C(O)CC1CCC(=O)N1Cc1cccc(F)c1F (single isomer, unassigned) [Example I-065]
Avena fatua (AVEFA) [5]
  Post-emergence activity against AVEFA: 90%
[32]
  Post-emergence activity against PHBPU: 80%
Viola tricolor (VIOTR) [17]; 1280 g/ha
  Pre-emergence activity against VIOTR: 100%
Avena fatua (AVEFA) [11]
  Pre-emergence activity against AVEFA: 80%
[13]
  Pre-emergence activity against POLCO: 100%
